Measured values taken from patent US20200157092A1, “[1,2,4]-TRIAZOLO [1,5-A]-PYRIMIDINYL DERIVATIVES SUBSTITUTED WITH PIPERIDINE, […] […] OGA INHIBITORS” (priority 2017, published 2020).
Read-outs that look alike come from different tables or passages of the source.

Assays:
[1] = target: T1, recombinant human Meningioma Expressed Antigen 5 (MGEA5), also referred to as O-GlcNAcase (OGA) (Homo sapiens, UniProt O60502); test: OGA biochemical assay: inhibition of FM-GlcNAc hydrolysis, fluorescence; protocol A (10 nM OGA, 1 h) or protocol B (2 nM OGA, 6 h); details: for IC50: read-out: Enzymatic hOGA, pIC50 (converted)
T1 construct: Full length OGA enzyme was purchased at OriGene (cat # TP322411); purchased OriGene TP322411
T1 sequence (O60502 1-916): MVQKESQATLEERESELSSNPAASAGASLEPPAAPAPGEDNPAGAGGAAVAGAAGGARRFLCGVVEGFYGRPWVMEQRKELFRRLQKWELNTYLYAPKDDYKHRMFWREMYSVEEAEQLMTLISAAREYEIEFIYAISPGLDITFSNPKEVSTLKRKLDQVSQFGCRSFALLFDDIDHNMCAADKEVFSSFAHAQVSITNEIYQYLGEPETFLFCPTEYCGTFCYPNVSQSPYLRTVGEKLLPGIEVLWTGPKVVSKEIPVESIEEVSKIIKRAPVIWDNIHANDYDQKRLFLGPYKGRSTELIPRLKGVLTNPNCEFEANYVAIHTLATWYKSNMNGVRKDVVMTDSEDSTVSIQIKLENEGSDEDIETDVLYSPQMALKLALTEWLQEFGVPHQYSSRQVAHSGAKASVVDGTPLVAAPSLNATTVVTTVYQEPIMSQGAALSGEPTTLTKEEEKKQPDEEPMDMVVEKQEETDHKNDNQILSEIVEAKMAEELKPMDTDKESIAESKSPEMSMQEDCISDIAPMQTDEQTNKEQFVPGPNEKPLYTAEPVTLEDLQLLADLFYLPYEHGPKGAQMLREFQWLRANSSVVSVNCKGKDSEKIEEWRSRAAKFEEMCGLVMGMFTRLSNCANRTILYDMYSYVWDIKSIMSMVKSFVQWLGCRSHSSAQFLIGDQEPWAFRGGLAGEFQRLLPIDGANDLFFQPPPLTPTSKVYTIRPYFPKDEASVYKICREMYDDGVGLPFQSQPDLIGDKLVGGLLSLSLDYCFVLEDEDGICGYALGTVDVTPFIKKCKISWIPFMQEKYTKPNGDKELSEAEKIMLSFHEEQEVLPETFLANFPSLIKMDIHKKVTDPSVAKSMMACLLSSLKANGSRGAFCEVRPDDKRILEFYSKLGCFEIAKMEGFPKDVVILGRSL
Protocol: The hydrolysis FM-GlcNAc (Marker Gene technologies, cat # M1485) results in the formation of ß-D-N-glucosamineacetate and fluorescein. The fluorescence of the latter can be measured at excitation wavelength 485 nm and emission wavelength 538 nm. An increase in enzyme activity results in an increase in fluorescence signal. Full length OGA enzyme was purchased at OriGene (cat # TP322411). The enzyme was stored in 25 mM Tris.HCl, pH 7.3, 100 mM glycine, 10% glycerol at −20° C. […] The assay was performed in 200 mM Citrate/phosphate buffer supplemented with 0.005% Tween-20. 35.6 g Na2HPO4 2 H2O (Sigma, # C0759) were dissolved in 1 L water to obtain a 200 mM solution. […] The buffer to stop the reaction consists of a 500 mM Carbonate buffer, pH 11.0. […] OGA was used at a 10 nM (protocol A) or 2 nM (protocol B) concentration and FM-GlcNAc at a 100 uM final concentration. Dilutions were prepared in assay buffer.
Plates were pre-incubated for 60 min at room temperature and then 2 μl FM-GlcNAc substrate mix added. […] Plates were briefly centrifuged for 1 min at 1000 rpm and incubate at room temperature for 1 h (10 nM OGA, protocol A) or 6 h (2 nM OGA, protocol B). To stop the reaction 5 μl STOP buffer were added and plates centrifuge again 1 min at 1000 rpm. Fluorescence was quantified in the Thermo Scientific Fluoroskan Ascent or the PerkinElmer EnVision with excitation wavelength 485 nm and emission wavelength 538 nm.
For analysis a best-fit curve is fitted by a minimum sum of squares method. From this an IC50 value and Hill coefficient was obtained. High control (no inhibitor) and low control (saturating concentrations of standard inhibitor) were used to define the minimum and maximum values.

OGA = target: T2, OGA (Homo sapiens, UniProt O60502); test: OGA cellular assay: immunocytochemical detection of O-GlcNAcylated proteins in HEK293 cells inducible for P301L mutant human Tau; assay type: cell-based; details: for Emax: HEK293, read-out: Cellular Emax (%); for Cellular hOGA; pEC50 / Cellular Emax (%): HEK293 cells inducible for P301L mutant human Tau, 6 hours incubation; for Cellular Emax (%): maximum = Thiamet G 200 uM
T2 construct: HEK293 cells inducible for P301L mutant human Tau (isoform 2N4R) were established at Janssen; endogenous in cells; host or cells: HEK293 cells inducible for P301L mutant human Tau (2N4R)
T2 sequence (O60502 1-916): T1 sequence (O60502 1-916)
Source text: HEK293 cells inducible for P301L mutant human Tau (isoform 2N4R) were established at Janssen. Thiamet-G was used for both plate validation (high control) and as reference compound (reference EC50 assay validation). […] Inhibition of OGA will result in an increase of O-GlcNAcylated protein levels resulting in an increased signal in the experiment. […] ICC pictures are imaged with a Perkin Elmer Opera Phenix plate microscope and quantified with the provided software Perkin Elmer Harmony 4.1.
Cells were propagated in DMEM high Glucose (Sigma, # D5796) following standard procedures. […] At the day of compound test medium from assay plates was removed and replenished with 90 μl of fresh Assay Medium. 10 μl of compounds at a 10 fold final concentration were added to the wells. Plates were centrifuged shortly before incubation in the cell incubator for 6 hours. DMSO concentration was set to 0.2%. Medium is discarded by applying vacuum. For staining of cells medium was removed and cells washed once with 100 μl D-PBS (Sigma, # D8537). From next step onwards unless other stated assay volume was always 50 μl and incubation was performed without agitation and at room temperature. […] Before analysis samples were washed 2 times manually for 5 minutes in ICC base buffer.
Imaging is performed using Perkin Elmer Phenix Opera using a water 20× objective and recording 9 fields per well. Intensity readout at 488 nm is used as a measure of O-GlcNAcylation level of total proteins in wells. To assess potential toxicity of compounds nuclei were counted using the Hoechst staining. IC50-values are calculated using parametric non-linear regression model fitting. As a maximum inhibition Thiamet G at a 200 uM concentration is present on each plate. In addition, a concentration response of Thiamet G is calculated on each plate.

[2] = Enzymatic protocol B (2 nM OGA, 6 h)
[3] = Enzymatic protocol A (10 nM OGA, 1 h)

| Structure (SMILES) | Emax [1, 2] [%] | IC50 [1, 2] [nM] | EC50 (OGA) [nM] | Emax (OGA) [%] | also measured |
| --- | --- | --- | --- | --- | --- |
| CC(=O)Nc1ncc(CN2C[C@@H](c3cc(C)nc4ncnn34)C[C@@H](C(F)(F)F)C2)s1 (mixture of isomers) [Product 84] | 88.5 | 1480 | – | – | – |
| CC(=O)Nc1ncc(S(=O)(=O)N2CCCC(c3ccnc4nccn34)C2)s1 (racemic) [Product 2] | – | – | – | – | Emax [1, 3]: 98.4%; IC50 [1, 3]: 186 nM |
| CC(=O)Nc1ncc(S(=O)(=O)N2CCCC(c3cc(C)nc4ncnn34)C2)s1 (racemic) [Product 3] | – | – | – | – | Emax [1, 3]: 96%; IC50 [1, 3]: 32.4 nM |
| CC(=O)Nc1ncc(S(=O)(=O)N2CCCC(c3cc(C(F)F)nc4nccn34)C2)s1 (racemic) [Product 5] | – | – | – | – | Emax [1, 3]: 99.4%; IC50 [1, 3]: 67.6 nM |
| CC(=O)Nc1ncc(S(=O)(=O)N2CCC(c3cc(C)nc4ncnn34)C2)s1 (racemic) [Product 8] | – | – | – | – | Emax [1, 3]: 89%; IC50 [1, 3]: 1550 nM |
| CC(=O)Nc1ncc(CN2CCCC(c3ccnc4nccn34)C2)s1 (racemic) [Product 10] | 100 | 35.5 | 209 | 99 | – |
| CC(=O)Nc1ncc(CN2CCCC(c3cccc4nccn34)C2)s1 (racemic) [Product 12] | 105 | 10.7 | 20.9 | 103 | – |
| CC(=O)Nc1ncc(CN2CCCC(c3ccnc4cc[nH]c34)C2)s1 (racemic) [Product 15] | 97.8 | 37.2 | 12.3 | 95.2 | – |
| CC(=O)Nc1ncc(CN2CCCC(c3cnc4cc[nH]c4c3)C2)s1 (racemic) [Product 26] | 123 | 40.7 | 24 | 99 | – |
| CC(=O)Nc1ncc(CN2CCC[C@H](c3ccnc4ccn(C)c34)C2)s1 (single isomer, unassigned) [Product 71] | 100 | 12.6 | 87.1 | 79.2 | – |
| CC(=O)Nc1ncc(CN2CCC[C@H](c3cc4cc[nH]c4nc3C)C2)s1 (single isomer, unassigned) [Product 75] | – | – | – | – | Enzymatic Emax (%) [1, 2]: 100.81%; Enzymatic hOGA; pIC50 [1, 2]: 8.57; Cellular hOGA; pEC50 (OGA): 7.90; Cellular Emax (%) (OGA): 119.60% |
| CC(=O)Nc1ncc(CN2CCC[C@@H](c3cnc4ccn(C)c4c3)C2)s1 (single isomer, unassigned) [Product 79] | – | – | – | – | Enzymatic Emax (%) [1, 2]: 102.15%; Enzymatic hOGA; pIC50 [1, 2]: 8.14; Cellular hOGA; pEC50 (OGA): 7.87; Cellular Emax (%) (OGA): 101.35% |
| CC(=O)Nc1ncc(CN2CCC[C@H](c3cnc4cc[nH]c4c3)C2)s1 (single isomer, unassigned) [Product 80] | – | – | – | – | Enzymatic Emax (%) [1, 2]: 99.58%; Enzymatic hOGA; pIC50 [1, 2]: 7.69; Cellular hOGA; pEC50 (OGA): 7.72; Cellular Emax (%) (OGA): 109.88% |
| CC(=O)Nc1ncc(S(=O)(=O)N2CCC[C@@H](c3ccnc4ncnn34)C2)s1 [Product 1] | – | – | – | – | Emax [1, 3]: 94.2%; IC50 [1, 3]: 871 nM |
| CC(=O)Nc1ncc(S(=O)(=O)N2CCC[C@H](c3ccnc4ncnn34)C2)s1 [Product 4] | – | – | – | – | Emax [1, 3]: 107%; IC50 [1, 3]: 30.9 nM |
| CC(=O)Nc1ncc(CN2CC[C@H](C)[C@@H](c3cc(C(F)F)nc4ncnn34)C2)s1 [Product 16] | 94.5 | 955 | – | – | Emax [1, 3]: 92.5%; IC50 [1, 3]: 1820 nM |

| Structure (SMILES) | Emax [1, 2] [%] | IC50 [1, 2] [nM] | EC50 (OGA) [nM] | Emax (OGA) [%] | also measured |
| --- | --- | --- | --- | --- | --- |
| CC(=O)Nc1ncc(CN2CCCC(c3cc(C)nc4nccn34)C2)s1 (stereo not drawn) [Product 17] | 101 | 8.51 | 55 | 106 | – |
| CC(=O)Nc1ncc(CN2CCC(c3cc(C)nc4ncnn34)C2)s1 (stereo not drawn) [Product 18] | 97.3 | 295 | – | – | – |
| CC(=O)Nc1ncc(CN2CCC(c3c(F)c(C)nc4ncnn34)C2)s1 (stereo not drawn) [Product 19] | 97.2 | 204 | – | – | – |
| CC(=O)Nc1ncc(CN2CCC(c3cc(C)nc4ccnn34)C2)s1 (stereo not drawn) [Product 21] | 98.3 | 407 | – | – | – |
| CC(=O)Nc1ncc(CN2CCCC(Cc3cc(C)nc4ccnn34)C2)s1 (stereo not drawn) [Product 44] | 101 | 3.8 | 35.5 | 129 | – |
| CC(=O)Nc1ncc(CN2CCCC(Cc3cncc4nccn34)C2)s1 (stereo not drawn) [Product 45] | 100 | 4.68 | 13.5 | 96.9 | – |
| CC(=O)Nc1ncc(CN2CCCC(Cc3cc(C)nc4ncnn34)C2)s1 (stereo not drawn) [Product 46] | 99.8 | 2.34 | 14.8 | 114 | – |
| CC(=O)Nc1ncc(CN2CCCC(Cc3c(F)c(C)nc4ncnn34)C2)s1 (stereo not drawn) [Product 47] | 102 | 1.26 | 15.5 | 109 | – |
| CC(=O)Nc1ncc(CN2CCC(Cc3cc(C)nc4ncnn34)C2)s1 (stereo not drawn) [Product 48] | 103 | 1.74 | 17 | 104 | – |
| CC(=O)Nc1ncc(CN2CCC(Cc3c(F)c(C)nc4ncnn34)C2)s1 (stereo not drawn) [Product 49] | 101 | 1.74 | 25.7 | 105 | – |
| Cc1cc(C2CN(C(C)c3ccc4c(c3)OCO4)CCO2)n2ncnc2n1 (stereo not drawn) [Product 53] | 64.6 | 6460 | – | – | – |
| CC(c1ccc2c(c1)OCO2)N1CCOC(c2cc(C(F)(F)F)nc3ncnn23)C1 (stereo not drawn) [Product 54] | 25.1 | > 10000 | – | – | – |
| CC(=O)Nc1ncc(CN2CCCC(C)(c3cc(C(F)F)nc4ncnn34)C2)s1 (stereo not drawn) [Product 61] | 27.4 | > 10000 | – | – | – |
| CC(c1ccc2c(c1)OCO2)N1CCC(Cc2cccc3nccn23)C1 (stereo not drawn) [Product 67] | 95.7 | 102 | – | – | – |
| CC(=O)Nc1ncc(CN2CCCC(c3cc4c(ccn4C)nc3C)C2)s1 (stereo not drawn) [Product 105] | 102 | 7.41 | – | – | – |
| CC(=O)Nc1ncc(S(=O)(=O)N2CCCCC(c3ccnc4ncnn34)C2)s1 (stereo not drawn) [Product 109] | – | – | – | – | Emax [1, 3]: 95.4%; IC50 [1, 3]: 437 nM |
